Source: patent US20240041042A1, “1-(PYRIDYL)-5-AZINYLPYRAZOLE DERIVATIVES, AND THEIR USE FOR CONTROL OF UNDESIRED PLANT GROWTH” (Bayer Aktiengesellschaft, priority 2020, published 2024)
Where two headings read alike, the source gives them in different places.

Experiments:
Type in all cases: in vivo
Avena fatua (AVEFA) = assay: Post-emergence herbicidal action against AVEFA; conditions: visual rating about 3 weeks after treatment
How it was run: (§1)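 Values are percent visual activity (0% like control, 100% plants dead) after about 3 weeks in the greenhouse. Treatment: post-emergence spray at one-leaf stage, 600 l/ha spray volume, 0.5% additive, doses 320 g/ha or lower.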

Zea mays (ZEAMX) = conditions: for Post-emergence action against ZEAMX in % (crop plant compatibility): 20 g/ha, effect in comparison to untreated controls
How it was run: (§2)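 Test crops were treated 2 to 3 weeks after sowing, once they reached one leaf, by spraying compound in water with 0.5% additive at 600 l/ha. Visual scoring compared them with untreated controls roughly 3 weeks on, and appendices a, b and c denote different doses.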

[1] = tested on: Polygonum convolvulus (POLCO); assay: Post-emergence herbicidal action against POLCO
How it was run: as §1

[2] = tested on: Echinochloa crus-galli (ECHCG); assay: Post-emergence herbicidal action against ECHCG
How it was run: as §1

[3] = tested on: Pharbitis purpurea (PHBPU); assay: Post-emergence herbicidal action against PHBPU
How it was run: as §1

[4] = tested on: Amaranthus retroflexus (AMARE); assay: Post-emergence herbicidal action against AMARE
How it was run: as §1

Setaria viridis (SETVI) = assay: Post-emergence herbicidal action against SETVI
How it was run: as §1

Viola tricolor (VIOTR) = assay: Post-emergence herbicidal action against VIOTR
How it was run: as §1

[5] = tested on: Abutilon theophrasti (ABUTH); assay: Post-emergence herbicidal action against ABUTH; conditions: visual rating about 3 weeks after treatment vs untreated controls (100% = plants have died, 0% = like control plants)
How it was run: as §1

[6] = tested on: Alopecurus myosuroides (ALOMY); assay: Post-emergence herbicidal action against ALOMY; conditions: visual rating about 3 weeks after treatment vs untreated controls (100% = plants have died, 0% = like control plants)
How it was run: as §1

[7] = tested on: Matricaria inodora (MATIN); assay: Post-emergence herbicidal action against MATIN
How it was run: as §1

Lolium rigidum (LOLRI) = assay: Post-emergence herbicidal action against LOLRI
How it was run: as §1

[8] = tested on: Verconica persica (VERPE); assay: Post-emergence herbicidal action against VERPE
How it was run: as §1

[9] = tested on: Digitaria sanguinalis (DIGSA); assay: Post-emergence herbicidal action against DIGSA; conditions: visual rating about 3 weeks after treatment
How it was run: as §1

Oryza sativa (ORYSA) = conditions: crop plant compatibility
How it was run: as §2

[10] = 320 g/ha, visual rating about 3 weeks after treatment
[11] = 20 g/ha, effect vs untreated controls
[12] = 80 g/ha, visual rating about 3 weeks after treatment vs untreated controls (100% = plants have died, 0% = like control plants)

| SMILES | Post-emergence action against AVEFA in % (Avena fatua (AVEFA); 80 g/ha) [%] | Post-emergence action against AVEFA in % (Avena fatua (AVEFA); 320 g/ha) [%] | Post-emergence action against POLCO in % ([1]; dosage 80 g/ha) [%] | Post-emergence action against POLCO in % ([1]; dosage 320 g/ha) [%] | Post-emergence action against ECHCG in % ([2]; dosage 320 g/ha) [%] | Post-emergence action against PHBPU in % ([3]; dosage 80 g/ha) [%] | Post-emergence action against PHBPU in % ([3]; dosage 320 g/ha) [%] | Post-emergence action against AMARE in % [4, 10] [%] | Post-emergence action against SETVI in % (Setaria viridis (SETVI); dosage 80 g/ha) [%] | Post-emergence action against SETVI in % (Setaria viridis (SETVI); dosage 320 g/ha) [%] | Post-emergence action against VIOTR in % (Viola tricolor (VIOTR); 80 g/ha) [%] | Post-emergence action against VIOTR in % (Viola tricolor (VIOTR); 320 g/ha) [%] | Post-emergence action against ABUTH in % ([5]; 80 g/ha) [%] | Post-emergence action against ABUTH in % ([5]; 320 g/ha) [%] | Post-emergence action against ALOMY in % ([6]; 320 g/ha) [%] | Post-emergence action against MATIN in % ([7]; dosage 320 g/ha) [%] | Post-emergence action against LOLRI in % (Lolium rigidum (LOLRI); dosage 320 g/ha) [%] | Post-emergence action against VERPE in % ([8]; 320 g/ha, VERPE) [%] | Post-emergence action against VERPE in % ([8]; dosage 80 g/ha) [%] | Post-emergence action against DIGSA in % ([9]; 320 g/ha) [%] | other results |
| --- | --- | --- | --- | --- | --- | --- | --- | --- | --- | --- | --- | --- | --- | --- | --- | --- | --- | --- | --- | --- | --- |
| COC(=O)[C@H](C)COC(=O)[C@@H](C)Oc1nn(-c2ccccn2)c(-c2ccc(F)nc2)c1Cl [Example I-275] | 90 | 90 | 80 | 80 | 90 | 90 | 100 | 80 | 90 | 90 | 90 | 90 | 80 | 80 | 100 | 90 | 90 | 90 | 90 | 90 | Post-emergence action against ZEAMX in % (crop plant compatibility) (Zea mays (ZEAMX)): 0%; Post-emergence action against ZEAMX in % (Zea mays (ZEAMX); crop plant compatibility, 80 g/ha, effect vs untreated controls): 20%; Post-emergence action against ALOMY in % ([6]; 80 g/ha): 80%; Post-emergence action against MATIN in % ([7]; dosage 80 g/ha): 80%; Post-emergence action against LOLRI in % (Lolium rigidum (LOLRI); dosage 80 g/ha): 90% |
| COC(=O)C(C)COC(=O)C(C)Oc1nn(-c2ccccn2)c(-c2ccc(F)nc2)c1Br (centres unmarked) [Example I-285] | – | 80 | – | 80 | 80 | 80 | 90 | – | 90 | 90 | 80 | 80 | – | 80 | 90 | 80 | 90 | 80 | 80 | 90 | Post-emergence action against ORYSA in % (Oryza sativa (ORYSA); [11]): 10%; Post-emergence action against ORYSA in % (Oryza sativa (ORYSA); 80 g/ha, effect in comparison to untreated controls): 10%; Post-emergence action against ZEAMX in % (crop plant compatibility) (Zea mays (ZEAMX)): 10%; Post-emergence action against ALOMY in % ([6]; 80 g/ha): 90%; Post-emergence action against LOLRI in % (Lolium rigidum (LOLRI); dosage 80 g/ha): 80%; Post-emergence action against DIGSA in % ([9]; 80 g/ha): 80% |
| COC(=O)[C@@H](C)Oc1nn(-c2ncccc2F)c(-c2cncc(F)c2)c1C1CC1 [Example I-144] | 90 | 90 | 80 | 80 | 90 | 90 | 90 | 90 | 90 | 90 | 90 | 90 | 80 | 90 | 90 | 90 | 90 | 90 | 90 | 90 | Post-emergence action against ORYSA in % (Oryza sativa (ORYSA); [11]): 0%; Post-emergence action against ECHCG in % ([2]; dosage 80 g/ha): 90%; Post-emergence action against AMARE in % [4, 12]: 90%; Post-emergence action against ALOMY in % ([6]; 80 g/ha): 90%; Post-emergence action against MATIN in % ([7]; dosage 80 g/ha): 90%; Post-emergence action against LOLRI in % (Lolium rigidum (LOLRI); dosage 80 g/ha): 90%; Post-emergence action against DIGSA in % ([9]; 80 g/ha): 90% |
| CCOC(=O)[C@@H](C)Oc1nn(-c2ncccc2F)c(-c2cncc(F)c2)c1Br [Example I-227] | 90 | 90 | 90 | 90 | 100 | 90 | 100 | 90 | 90 | 90 | 90 | 90 | 90 | 90 | 90 | 90 | 90 | 90 | 90 | 90 | Post-emergence action against ORYSA in % (Oryza sativa (ORYSA); [11]): 0%; Post-emergence action against ECHCG in % ([2]; dosage 80 g/ha): 90%; Post-emergence action against AMARE in % [4, 12]: 90%; Post-emergence action against ALOMY in % ([6]; 80 g/ha): 80%; Post-emergence action against MATIN in % ([7]; dosage 80 g/ha): 80%; Post-emergence action against LOLRI in % (Lolium rigidum (LOLRI); dosage 80 g/ha): 80%; Post-emergence action against DIGSA in % ([9]; 80 g/ha): 80% |
| COC(=O)[C@@H](C)Oc1nn(-c2ncccc2F)c(-c2cncc(F)c2)c1Cl [Example I-146] | 90 | 90 | 80 | 90 | 90 | 90 | 90 | 90 | 90 | 90 | 90 | 90 | 80 | 90 | 90 | 90 | 90 | 90 | 90 | 90 | Post-emergence action against ORYSA in % (Oryza sativa (ORYSA); [11]): 0%; Post-emergence action against ECHCG in % ([2]; dosage 80 g/ha): 90%; Post-emergence action against AMARE in % [4, 12]: 90%; Post-emergence action against MATIN in % ([7]; dosage 80 g/ha): 90% |
